Reference: US11027028B2, “Manganese complexes with substituted bisphosphonates useful as imaging and therapeutic agents” (DUKE UNIVERSITY, priority 2015, dated 2021)

Tests used:
[1] = In vivo MRI after i.v. administration of Mn(II) complexes; set-up: species or system mouse
Procedure: FIG. 4. A, In vivo MRI in control mouse after i.v. administration of MnNTA. B, MRI after i.v. administration of Mn:ETID ([…] of 40 mM solution).
In vivo behavior was tested of two relatively strong (log K1>7) ligands for Mn(II) chelation, nitrilotriacetic acid (NTA), closely related to EDTA, and […] (3,4-DBA).
Enhancement of the bowel is also noted but more variable, believed to represent elimination of the coordination complex from the gallbladder into the small intestine. In addition, subtle but transient T1 changes are observed in the skeletal muscles and long bones that return to normal after 30 min, paralleling the mild residual T1 changes in major vessels, consistent with a blood pool rather than local parenchymal uptake effect.

4T1 tumor = assay: Dynamic contrast enhancement of 4T1 tumor after i.v. administration; format: in vivo; conditions: pilot data
Procedure: FIG. 5. Dynamic contrast enhancement of 4T1 tumor after i.v. administration of 1-hydroxybisphosphonate:Mn complex linked to HSP90 inhibitor as in Scheme 1C, 25 mg/kg. Graph on left depicts relative change in T1 enhancement in tumors after labeled drug (n=5) and after Mn:ETID complex alone (n=6).
Several synthetic strategies were used for labeling small molecule drugs either directly or via polyethyleneglycol (PEG) linkers. Two complexes, the first with a medronate analogue (Scheme IB) via the amine-terminated PEG linker and the second an etidronate analogue coupled through the COOH-terminated PEG linker (Scheme 1C), were synthesized, characterized and studied preliminarily in vivo.

[2] = previously FDA-approved Mn(II) agent; cited from earlier work

In the case of `O=C(O)CN(CC(=O)O)CC(=O)O` [NTA, nitrilotriacetic acid], the Cardiac enhancement ([1]; after i.v. administration, indicates free Mn released into the blood pool) is reported as “cardiac enhancement was also seen” and the “Biodistribution on in vivo MR imaging” value ([1]; mouse, in vivo, iv) is reported as “release of free Mn and hepatocellular uptake”.
For `Cc1nn(-c2ccc(C(N)=O)c(NCCCOCCOCCOCCOCCOCCCC(=O)NCCCC(O)(P(=O)(O)O)P(=O)(O)O)c2)c2c1C(=O)CC(C)(C)C2` [Scheme 1C], the “Enhancement in 4T1 tumors relative to paramagnetic coordination complex alone” value (4T1 tumor) was “progressive accumulation of enhancement in 4T1 tumors that is greater than what is seen for the paramagnetic coordination complex alone”.
In the case of `Cc1ncc(COP(=O)([O-])[O-])c(CN(CCN(CC(=O)[O-])Cc2c(COP(=O)([O-])[O-])cnc(C)c2[O-])CC(=O)[O-])c1[O-].[H+].[H+].[H+].[Mn+2].[Na+].[Na+].[Na+]` [Teslascan, mangafodipir trisodium], the In vivo distribution [2] is given as “immediately distributed to the liver, releasing free Mn”.
